This is an account of results in paper PMC12560828, “Chemical structure drives developmental toxicity of alkyl-substituted naphthalenes in zebrafish” (Environment international, 2025).

Structures are written as SMILES.

The subject of data set [1] is zebrafish larvae, 120 hpf. The data set can be described thus: Larval photomotor response (LPR) assay after vial exposure. It counts as in vivo, Danio rerio. Particulars: LPR. In outline:
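Embryos bleached at 6 hpf, exposed in sealed glass vials (8 per vial, DMSO stock at 200x) with rotation overnight at 28 °C, then singulated into chemical-free medium and kept dark at 28 °C. Movement tracked minutes 6–24 at 120 hpf, 6 s bins log-normalized to AUC; LEL per light/dark period from first cycle; nominal water concentrations, dead/malformed larvae excluded.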

In data set [2] the test system is zebrafish embryos, gene expression at 48 hpf. The data set can be described thus: Targeted transcriptomics (TempO-Seq S1500+ zebrafish panel), differential expression. Format: in vivo, Danio rerio. Conditions: 20 μM. How it is done:
Targeted transcriptomics were performed using the Biospyder™ TempO-Seq™ 96-well plate platform. This platform used detector oligos for a gene set of 3112 probes selected through data driven approaches and expert curation ([Balik-Meisner et al., 2019]). The targeted transcriptomics approach was selected to maximize the number of chemicals that could be included in the analysis while managing cost and data analysis requirements. Targeted transcriptomics were limited to 96 samples, three chemicals without morphological effects were excluded from the analysis to ensure n = 4 per chemical and n = 6 controls, excluded chemicals are indicated in SI-T3.
A single exposure concentration of 20 μM was chosen as the maximum possible concentration to elicit a biological response that also ensured enough viable animals for RNA collection for every chemical. The same concentration per chemical was chosen as opposed to a phenotypically anchored concentration due to variability in 48 hpf survival across chemicals at the same 120 hpf percent effect and to allow for a direct comparison of chemical potency and transcriptomic response. 48 hpf was chosen to ensure the measurement of transcriptomic responses prior to the emergence of observable phenotypic effects. This timepoint has been used extensively and enhanced the ability to compare our results across datasets. Exposure was conducted over two days, chemicals were split into day groups by numerical order of randomly generated internal labels, 11 chemicals and control each day, n = 48 embryos across six vials per treatment. Exposure was conducted as previously described in section 2.3. At 48 hpf embryos were collected for RNA extraction. Embryos from two exposure vials were kept for morphological effect assessments which were as expected based on screening results. From the remaining wells, six phenotypically normal embryos were collected and pooled in their vial groups into 1.5 mL Eppendorf tubes, placed on ice (~30 sec), excess medium was removed, placed back on ice (~30 sec), and 200 μL RNA shield was added. […] of n = 6 pooled embryos were collected from each treatment.
RNA was extracted from exposure groups on day one and day two. 100 μL of lysis buffer was added to each tube containing pooled embryo samples and 200 μL of RNA shield, the full contents of the tube were then transferred to the homogenization plate (2 mL deep 96-well plate pre-filled with 400 μL 1 mm zirconium beads and 500 μL of lysis buffer). The plate was homogenized for 1.5 min using the Mini-BeadBeater 96 (BioSpec Products, Bartlesville, OK, United States) and centrifuged for five min at 3000 rcf. 550 μL of the supernatant was distributed over two plates, each pre-filled with 275 μL of ethanol. RNA extraction was performed using the KingFisher Apex System (ThermoFisher Scientific, Waltham, MA, United States) and Quick-RNA Magbead kit (Zymo Research Corporation, Irvine, CA, Untied States). Briefly, this automated process uses Mag beads to collect RNA from the sample, after a series of washes and treatment with DNase the RNA is eluted in 50 μL of ultra-pure water. RNA quality was assessed using the 4150 TapeStation System (Agilent, Santa Clara, CA, United States). All samples used had RNA integrity number (RIN) scores >9.8. RNA concentration was determined using Quant-iT RNA Reagent and assay kit and Varioskan ALF multi-mode plate reader (ThermoFisher Scientific, Waltham, MA, United States) in duplicate, samples with high variability (coefficient of variance (CV) > 10) between reads were repeated in triplicate. The average of the quantification reads was used for RNA concentration normalization. […] All 94 samples were normalized using ultra-pure water to the lowest concentration sample − 14.9 ng/μL. […]

The mark [3] stands for this setting: period dark, round 1, conc 3.125.
The mark [4] stands for this setting: period dark, round 1, conc 6.25.
[5] abbreviates: period dark, round 1, conc 12.5.
Where [6] appears, read: period dark, round 2, conc 37.5.
The mark [7] stands for this setting: period light, round 1, conc 3.125.
The mark [8] stands for this setting: period light, round 1, conc 6.25.
[9] abbreviates: period light, round 1, conc 12.5.
Where [10] appears, read: period light, round 2, conc 37.5.

As to `Cc1cccc2c(C)cccc12` [1,5-dimethylnaphthalene], the fold_change was 0.2385 in data set [1] (setting [3]); 0.04355 in data set [1] (setting [4]); 0.0001175 in data set [1] (setting [5]); -0.1166 in data set [1] (period dark, round 1, conc 25); -0.72 in data set [1] (period dark, round 2, conc 30); -0.6231 in data set [1] (setting [6]). Besides, the fold_change is given as 0.2204 in data set [1] (setting [7]); 0.1087 in data set [1] (setting [8]); 0.8122 in data set [1] (setting [9]); 0.799 in data set [1] (period light, round 1, conc 25); 0.3918 in data set [1] (period light, round 2, conc 30); 0.2643 in data set [1] (setting [10]).
Take `Cc1ccc2cccc(C)c2c1` [1,7-dimethylnaphthalene]: the fold_change was -0.2153 in data set [1] (setting [3]); -0.5415 in data set [1] (setting [4]); -0.6708 in data set [1] (setting [5]); -0.6391 in data set [1] (period dark, round 1, conc 25); -0.5634 in data set [1] (setting [7]); -0.1569 in data set [1] (setting [8]). The fold_change in data set [1] (setting [9]) is -0.05053; in data set [1] (period light, round 1, conc 25) it was 0.1308. For the same molecule, the “number of differentially expressed genes (DEGs)” value in data set [2] (p-value ≤ 0.05 and log2FC ≥ |1|, result in words) is recorded as “substantially more DEGs than the rest of the chemicals tested”. Moreover, the nt5dc2 expression result in data set [2] (result in words) is reported as “decreased expression”. Further, in data set [2] (vs global control (SI-T13)), the “logFC CCN1” value is -1.157. Moreover, the “logFC FGFBP2B” value in data set [2] (vs global control (SI-T13)) is on record as -1.676. Further, in data set [2] (vs global control (SI-T13)), the “logFC MFAP2” value is reported as -0.751. Moreover, in data set [2] (vs global control (SI-T13)), the “logFC PDE6GB” value is -0.7875. Further, in data set [2] (vs global control (SI-T13)), the “logFC PLOD1A” value is recorded as -3.2359.
For `Cc1cc(C)c2c(C)cccc2c1` [2,4,5-trimethylnaphthalene], the fold_change is -0.1188 in data set [1] (setting [3]); -0.09148 in data set [1] (setting [4]); -0.4407 in data set [1] (setting [5]); -0.3131 in data set [1] (period dark, round 2, conc 12.8); -0.104 in data set [1] (period dark, round 2, conc 16); -0.2326 in data set [1] (period dark, round 2, conc 20). Moreover, the fold_change in data set [1] (setting [7]) is given as -0.1438; in data set [1] (setting [8]), -0.1964; in data set [1] (setting [9]) it was 0.215; in data set [1] (period light, round 2, conc 12.8) it was -0.6609; in data set [1] (period light, round 2, conc 16), 0.3746; in data set [1] (period light, round 2, conc 20) it was 0.3257.
Regarding `Cc1ccc2ccc(C)cc2c1` [2,7-dimethylnaphthalene], the fold_change in data set [1] (setting [3]) was 0.1561; in data set [1] (setting [4]) it was -0.165; in data set [1] (setting [5]) it was -0.13; in data set [1] (period dark, round 1, conc 25) it was -0.7363; in data set [1] (period dark, round 1, conc 50), -0.8227; in data set [1] (setting [7]), 0.7628. The fold_change in data set [1] (setting [8]) is 0.4574; in data set [1] (setting [9]), 1.067; in data set [1] (period light, round 1, conc 25), 1.005; in data set [1] (period light, round 1, conc 50), 0.2181. Also, in data set [2] (result in words), the nt5dc2 expression entry was “decreased expression”.
For `CCc1ccc2ccccc2c1` [2-ethylnaphthalene], the fold_change in data set [1] (setting [3]) is reported as -0.0209; in data set [1] (setting [4]) it was -0.02917; in data set [1] (setting [5]), -0.4131; in data set [1] (period dark, round 1, conc 25), -0.9177; in data set [1] (period dark, round 2, conc 30), -0.0665; in data set [1] (setting [6]) it was -0.3116. The fold_change in data set [1] (setting [7]) was -0.3417; in data set [1] (setting [8]), 0.05317; in data set [1] (setting [9]), 0.3434; in data set [1] (period light, round 1, conc 25) it was -0.2321; in data set [1] (period light, round 2, conc 30), 0.3708; in data set [1] (setting [10]), -0.3232. For the same molecule, the nt5dc2 expression result in data set [2] (result in words) is given as “decreased expression”.
